Assay results as given in ChEMBL document CHEMBL2203230, “Compounds from the heartwood of Caesalpinia sappan and their anti-inflammatory activity” (Bioorg Med Chem Lett, 2012).

What was measured:
[1] = system: RAW264.7; experiment: Antiinflammatory activity in mouse RAW264.7 cells assessed as inhibition of LPS-induced NO production after 24 hrs by Griess method; assay type: functional, cell-based; conditions: RAW264.7, 24 h
[2] = system: RAW264.7; experiment: Antiinflammatory activity in mouse RAW264.7 cells assessed as reduction in LPS-induced iNOS expression incubated for 30 mins prior to LPS-challenge measured after 18 hrs; assay type: functional, cell-based

COc1cc2c(cc1O)C[C@@]1(O)COc3cc(O)ccc3[C@@H]21
IC50 [1]: > 50 µM

COc1cc(C[C@@]2(O)COc3cc(O)ccc3[C@@H]2OC)ccc1O [CAESALPINIAPHENOL F]
IC50 [1]: > 50 µM

O=C(c1ccc(O)cc1O)[C@@H](O)Cc1ccc(O)cc1
IC50 [1]: > 50 µM

COc1cc2c(cc1O)[C@@H]1c3ccc(O)cc3OC[C@]1(O)C2
IC50 [1]: > 50 µM

COC1(OC)COc2cc(O)ccc2-c2cc(O)c(O)cc2C1 [PROTOSAPPANINADIMETHYLACETAL]
IC50 [1]: > 50 µM

Oc1ccc2c(c1)OC[C@]1(O)Cc3cc(O)c(O)cc3[C@H]21 [BRAZILIN]
IC50 [1]: 43.5 µM

CC1(C)O[C@H]2c3ccc(O)cc3OC[C@@]2(Cc2ccc(O)cc2)O1
IC50 [1]: > 50 µM

COc1cc(O)ccc1C(=O)/C=C/c1ccc(O)cc1
Activity [2]: Dose-dependent effect
IC50 [1]: 8.1 µM

COc1cc(C[C@@]23COc4cc(O)ccc4[C@@H]2OC(C)(C)O3)ccc1O
IC50 [1]: > 50 µM

CO[C@H]1[C@]2(O)COC3=CC(=O)C=C[C@@]31c1cc(O)c(O)cc1C2 [CAESALPINJ]
IC50 [1]: > 50 µM

Oc1ccc2c(c1)OC[C@]1(O)Cc3c(ccc(O)c3O)[C@H]21 [CAESALPINIAPHENOL E]
IC50 [1]: > 50 µM

Oc1ccc2c(c1)OC[C@@H]1Cc3cc(O)c(O)cc3[C@H]21 [BRAZILANE]
IC50 [1]: 36.7 µM
